# Reference: US11149020B2, “MAP kinase modulators and uses thereof” (The Trustees of Columbia University in the City of New York, priority 2013, dated 2021)
# Like-named read-outs stand apart in the source and are kept apart here.
# Tests used:
# CK-1δ = CK-1δ (Homo sapiens (Human), UniProt P48730); assay: Kinase assay, concentration dependent inhibition of CK-1δ
# human p38α MAPK = human p38α MAPK (Homo sapiens (Human), UniProt Q16539); assay: Kinase assay, concentration dependent inhibition of p38α MAPK; assay type: biochemical; conditions: for Ki: kinetic analyses
# human p38α MAPK, sequence (Q16539 whole entry): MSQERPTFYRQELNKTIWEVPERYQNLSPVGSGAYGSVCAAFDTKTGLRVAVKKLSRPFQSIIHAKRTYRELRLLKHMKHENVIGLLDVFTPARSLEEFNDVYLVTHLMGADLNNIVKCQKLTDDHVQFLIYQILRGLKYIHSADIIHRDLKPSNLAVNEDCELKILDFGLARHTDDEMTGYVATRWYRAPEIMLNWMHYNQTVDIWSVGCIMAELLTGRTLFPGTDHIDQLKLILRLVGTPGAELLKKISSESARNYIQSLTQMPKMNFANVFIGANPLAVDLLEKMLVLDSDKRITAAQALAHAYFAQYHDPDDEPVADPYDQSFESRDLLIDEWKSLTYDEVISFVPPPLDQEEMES
# APP/PS1 mice [1] = assay: LTP in APP/PS1 mice; assay type: in vivo, mouse; conditions: 2.5 mg/kg, daily, p.o., from 2 months until 3-4 months of age
# APP/PS1 mice [2] = assay: Fear conditioning (contextual and cued) in APP/PS1 mice; conditions: 2.5 mg/kg, daily, p.o., from 2 months of age
# APP/PS1 mice [3] = assay: RAWM in APP/PS1 mice; conditions: 2.5 mg/kg, daily, p.o., from 2 months of age
# [4] = test system: LPS-induced IL-1β in brain cortex; assay: In vivo LPS-induced brain cortex IL-1β; set-up: species or system mouse; conditions: oral administration, 20 mg/Kg, 6 hrs after LPS
# [5] = test system: murine microglial BV-2 cell line; assay: cells; assay type: cell-based; conditions: BV-2 cells, TLR2, TLR4, TLR7/8, TLR9 ligands
# CK-1δ, sequence (P48730 whole entry): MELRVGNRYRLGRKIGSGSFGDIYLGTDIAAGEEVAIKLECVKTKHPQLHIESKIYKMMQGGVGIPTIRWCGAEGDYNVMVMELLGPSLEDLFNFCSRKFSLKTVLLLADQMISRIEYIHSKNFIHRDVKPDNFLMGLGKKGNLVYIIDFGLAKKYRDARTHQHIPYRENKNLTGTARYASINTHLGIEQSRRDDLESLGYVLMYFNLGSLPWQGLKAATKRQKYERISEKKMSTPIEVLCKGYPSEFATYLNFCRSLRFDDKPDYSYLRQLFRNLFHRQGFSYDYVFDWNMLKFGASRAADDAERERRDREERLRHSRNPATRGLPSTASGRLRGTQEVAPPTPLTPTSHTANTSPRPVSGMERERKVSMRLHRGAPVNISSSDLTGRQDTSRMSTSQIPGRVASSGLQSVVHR
structure (smiles),measurement,setting,value
"CN1CCN(c2cc(-c3ccncc3F)c(-c3cccc4ccccc34)nn2)CC1 [14 (MW-109), 4-(3-fluoropyridin-4-yl)-6-(4-methylpiperazin-1-yl)-3-(naphthalen-1-yl)pyridazine]",IC50,CK-1δ; read-out: Ck1δ IC50,> 10000 nM
same,IC50,human p38α MAPK,131 nM
"c1ccc2cc(-c3nnc(N4CCOCC4)cc3-c3ccncc3)ccc2c1 [33 (MW-152), 4-(6-(naphthalen-2-yl)-5-(pyridin-4-yl)pyridazin-3-yl)morpholine]",IC50,human p38α MAPK,481 nM
"c1ccc2c(-c3nnc(C4CC4)cc3-c3ccncc3)cccc2c1 [7 (MW-077), 6-cyclopropyl-3-(naphthalen-1-yl)-4-(pyridin-4-yl)pyridazine]",LTP defect in APP/PS1 mice,APP/PS1 mice [1],rescue defects in LTP
same,IC50,CK-1δ; read-out: Ck1δ IC50,> 10000 nM
same,contextual fear memory defect in APP/PS1 mice,APP/PS1 mice [2],rescue the defect in contextual fear learning
same,spatial/reference memory defect (RAWM) in APP/PS1 mice,APP/PS1 mice [3],rescue defects in spatial memory
same,IC50,human p38α MAPK,419 nM
same,Ki,human p38α MAPK,186 nM
"CC(C)Nc1cc(-c2ccncc2)c(-c2cccc3ccccc23)nn1 [25 (MW-031), N-isopropyl-6-(naphthalen-1-yl)-5-(pyridin-4-yl)pyridazin-3-amine]",IC50,CK-1δ; read-out: Ck1δ IC50,> 10000 nM
same,IC50,human p38α MAPK,162 nM
"CN1CCN(c2cc(-c3ccncc3)c(-c3cccc4ccccc34)nn2)CC1 [11 (MW-122), 6-(4-methylpiperazin-1-yl)-3-(naphthalen-1-yl)-4-(pyridin-4-yl)pyridazine]",IC50,CK-1δ; read-out: Ck1δ IC50,> 10000 nM
same,IC50,human p38α MAPK,185 nM
same,Ki,human p38α MAPK,98 nM
"CN(C)c1cnc(-c2cccc3ccccc23)c(-c2ccncc2)n1 [44 (MW-064), N,N-dimethyl-5-(naphthalen-1-yl)-6-(pyridin-4-yl)pyrazin-2-amine]",IC50,CK-1δ; read-out: Ck1δ IC50,> 10000 nM
same,IC50,human p38α MAPK,456 nM
same,Ki,human p38α MAPK,343 nM
"CCN(CC)c1cc(-c2ccncc2)c(-c2cccc3ccccc23)nn1 [23 (MW-033), N,N-diethyl-6-(naphthalen-1-yl)-5-(pyridin-4-yl)pyridazin-3-amine]",IC50,CK-1δ; read-out: Ck1δ IC50,> 10000 nM
same,IC50,human p38α MAPK,162 nM
"CNc1cc(-c2ccncc2)c(-c2ccc3ccccc3c2)nn1 [16 (MW-200), N-methyl-6-(naphthalen-2-yl)-5-(pyridin-4-yl)pyridazin-3-amine]",IC50,CK-1δ; read-out: Ck1δ IC50,4980 nM
same,IC50,human p38α MAPK,175 nM
same,Ki,human p38α MAPK,100 nM
"CN1CCN(c2cc(-c3ccncc3)c(-c3ccc4ccc(F)cc4c3)nn2)CC1 [50 (MW-017), 3-(7-Fluoronaphthalen-2-yl)-6-(4-methylpiperazin-1-yl)-4-(pyridin-4-yl)pyridazine]",IC50,CK-1δ; read-out: Ck1δ IC50,16800 nM
same,IC50,human p38α MAPK,974 nM
"c1cc(-c2nnc(N3CCNCC3)cc2-c2ccncc2)c2cc[nH]c2c1 [30 (MW-126), 4-(6-(piperazin-1-yl)-4-(pyridin-4-yl)pyridazin-3-yl)-1H-indole]",IC50,CK-1δ; read-out: Ck1δ IC50,2630 nM
same,IC50,human p38α MAPK,753 nM
CN(C)c1cc(-c2ccncc2)c(-c2cccc3ccccc23)nn1 [MW-181 (1)],LPS-induced IL-1β levels in brain cortex,[4],in vivo suppression of increased brain levels of IL-1β after oral administration
same,IL-1β production with diverse TLR ligands,[5],inhibition of increased cytokine production by glia in response to LPS (IC50=820±30 nM) and other TLR ligands
"CN1CCC(c2cc(-c3ccncc3)c(-c3ccc4ccccc4c3)nn2)CC1 [36 (MW-164), 6-(1-methylpiperidin-4-yl)-3-(naphthalen-2-yl)-4-(pyridin-4-yl)pyridazine]",IC50,CK-1δ,11200 nM
same,IC50,human p38α MAPK,224 nM
same,Ki,human p38α MAPK,101 nM
"CCCN(C)c1cc(-c2ccncc2)c(-c2cccc3ccccc23)nn1 [24 (MW-010), N-methyl-6-(naphthalen-1-yl)-N-propyl-5-(pyridin-4-yl)pyridazin-3-amine]",IC50,CK-1δ,> 10000 nM
same,IC50,human p38α MAPK,188 nM
"COc1ccc2ccccc2c1-c1nnc(N(C)C)cc1-c1ccncc1 [19 (MW-155), 6-(2-methoxynaphthalen-1-yl)-N,N-dimethyl-5-(pyridin-4-yl)pyridazin-3-amine]",IC50,human p38α MAPK,> 1600 nM
"CC(C)Nc1cc(-c2ccncc2)c(-c2ccc3ccccc3c2)nn1 [26 (MW-025), N-isopropyl-6-(naphthalen-2-yl)-5-(pyridin-4-yl)pyridazin-3-amine]",IC50,CK-1δ; read-out: Ck1δ IC50,2620 nM
same,IC50,human p38α MAPK,130 nM
"c1ccc2c(-c3nnc(NC4CC4)cc3-c3ccncc3)cccc2c1 [13 (MW-107), N-cyclopropyl-6-(naphthalen-1-yl)-5-(pyridin-4-yl)pyridazin-3-amine]",IC50,CK-1δ; read-out: Ck1δ IC50,> 10000 nM
same,IC50,human p38α MAPK,264 nM
same,Ki,human p38α MAPK,91 nM
"CN1CCN(c2cc(-c3ccncc3)c(-c3cccc4c(F)cccc34)nn2)CC1 [55 (MW-063), 3-(5-fluoronaphthalen-1-yl)-6-(4-methylpiperazin-1-yl)-4-(pyridin-4-yl)pyridazine]",IC50,CK-1δ; read-out: Ck1δ IC50,32500 nM
same,IC50,human p38α MAPK,526 nM
"CN1CCN(c2cc(-c3ccncc3)c(-c3cccc4[nH]ccc34)nn2)CC1 [29 (MW-108), 4-(6-(4-methylpiperazin-1-yl)-4-(pyridin-4-yl)pyridazin-3-yl)-1H-indole]",IC50,CK-1δ; read-out: Ck1δ IC50,6130 nM
same,IC50,human p38α MAPK,3070 nM
"CN(C)c1cc(-c2ccncc2)c(-c2ccc(F)c3ccccc23)nn1 [17 (MW-078), 6-(4-fluoronaphthalen-1-yl)-N,N-dimethyl-5-(pyridin-4-yl)pyridazin-3-amine]",IC50,CK-1δ; read-out: Ck1δ IC50,> 10000 nM
same,IC50,human p38α MAPK,1780 nM
"CN1CCN(c2cc(-c3ccncc3)c(-c3ccc4cccc(F)c4c3)nn2)CC1 [52 (MW-032), 3-(8-Fluoronaphthalen-2-yl)-6-(4-methylpiperazin-1-yl)-4-(pyridin-4-yl)pyridazine]",IC50,CK-1δ; read-out: Ck1δ IC50,17900 nM
same,IC50,human p38α MAPK,735 nM
"CN(C)c1cc(-c2ccncc2)c(-c2cc(F)cc3cccnc23)nn1 [21 (MW-165), 6-(6-fluoroquinolin-8-yl)-N,N-dimethyl-5-(pyridin-4-yl)pyridazin-3-amine]",IC50,human p38α MAPK,> 1600 nM
"c1ccc2c(-c3nnc(N4CCCCC4)cc3-c3ccncc3)cccc2c1 [12 (MW-124), 3-(naphthalen-1-yl)-6-(piperidin-1-yl)-4-(pyridin-4-yl)pyridazine]",IC50,CK-1δ; read-out: Ck1δ IC50,> 10000 nM
same,IC50,human p38α MAPK,191 nM
"CN(C)c1cc(-c2ccncc2)c(-c2cccc3cnccc23)nn1 [20 (MW-082), 6-(isoquinolin-5-yl)-N,N-dimethyl-5-(pyridin-4-yl)pyridazin-3-amine]",IC50,CK-1δ; read-out: Ck1δ IC50,> 10000 nM
same,IC50,human p38α MAPK,> 3200 nM
"CN(C)c1cc(-c2ccncc2)c(-c2cccc3ccc(F)cc23)nn1 [18 (MW-085), 6-(7-fluoronaphthalen-1-yl)-N,N-dimethyl-5-(pyridin-4-yl)pyridazin-3-amine]",IC50,human p38α MAPK,1170 nM
"CNc1cc(-c2ccncc2)c(-c2cccc3ccccc23)nn1 [15 (MW-156), N-methyl-6-(naphthalen-1-yl)-5-(pyridin-4-yl)pyridazin-3-amine]",IC50,CK-1δ; read-out: Ck1δ IC50,> 10000 nM
same,IC50,human p38α MAPK,289 nM
same,Ki,human p38α MAPK,276 nM
"CN(C)c1cc(-c2ccncc2)c(-c2ccc3[nH]ccc3c2)nn1 [22 (MW-066), 6-(1H-indol-5-yl)-N,N-dimethyl-5-(pyridin-4-yl)pyridazin-3-amine]",IC50,CK-1δ; read-out: Ck1δ IC50,4280 nM
same,IC50,human p38α MAPK,369 nM
"c1ccc2cc(-c3nnc(NC4CC4)cc3-c3ccncc3)ccc2c1 [35 (MW-153), N-cyclopropyl-6-(naphthalen-2-yl)-5-(pyridin-4-yl)pyridazin-3-amine]",IC50,human p38α MAPK,189 nM
"CN1CCN(c2cc(-c3ccncc3)c(-c3cc(F)cc4ccccc34)nn2)CC1 [53 (MW-059), 3-(3-fluoronaphthalen-1-yl)-6-(4-methylpiperazin-1-yl)-4-(pyridin-4-yl)pyridazine]",IC50,CK-1δ; read-out: Ck1δ IC50,119000 nM
same,IC50,human p38α MAPK,> 20000 nM
"CCN1CCN(c2cc(-c3ccncc3)c(-c3ccc4ccccc4c3)nn2)CC1 [62 (MW-026), 6-(4-ethylpiperazin-1-yl)-3-(naphthalen-2-yl)-4-(pyridin-4-yl)pyridazine]",IC50,CK-1δ; read-out: Ck1δ IC50,4990 nM
same,IC50,human p38α MAPK,520 nM
"c1ccc2cc(-c3nnc(C4CC4)cc3-c3ccncc3)ccc2c1 [9 (MW-125), 6-Cyclopropyl-4-(pyridin-4-yl)-3-(naphthalen-2-yl)pyridazine]",LTP defect in APP/PS1 mice,APP/PS1 mice [1],rescue defects in LTP
same,IC50,CK-1δ; read-out: Ck1δ IC50,> 10000 nM
same,contextual fear memory defect in APP/PS1 mice,APP/PS1 mice [2],rescue the defect in contextual fear learning
same,spatial/reference memory defect (RAWM) in APP/PS1 mice,APP/PS1 mice [3],rescue defects in spatial memory
same,IC50,human p38α MAPK,412 nM
same,Ki,human p38α MAPK,127 nM
"CN1CCN(c2cc(-c3ccncc3)c(-c3cccc4cc(F)ccc34)nn2)CC1 [54 (MW-197), 3-(6-fluoronaphthalen-1-yl)-6-(4-methylpiperazin-1-yl)-4-(pyridin-4-yl)pyridazine]",IC50,CK-1δ; read-out: Ck1δ IC50,136000 nM
same,IC50,human p38α MAPK,669 nM
"Fc1cnccc1-c1cc(C2CC2)nnc1-c1ccc2ccccc2c1 [10 (MW-167), 6-Cyclopropyl-4-(3-fluoropyridin-4-yl)-3-(naphthalen-2-yl)pyridazine]",IC50,CK-1δ; read-out: Ck1δ IC50,> 10000 nM
same,IC50,human p38α MAPK,307 nM
same,Ki,human p38α MAPK,86 nM
"CN1CCN(c2cc(-c3ccncc3F)c(-c3ccc4ccccc4c3)nn2)CC1 [37 (MW-149), 4-(3-fluoropyridin-4-yl)-6-(4-methylpiperazin-1-yl)-3-(naphthalen-2-yl)pyridazine]",IC50,CK-1δ; read-out: Ck1δ IC50,4620 nM
same,IC50,human p38α MAPK,235 nM
